Experimental data published in publication PMC7375803, “TBR-760, a Dopamine-Somatostatin Compound, Arrests Growth of Aggressive Nonfunctioning Pituitary Adenomas in Mice” (Endocrinology, 2020).
Values joined by “and” are separate entries in the source; they are usually repeats but may differ in a detail not shown here. Equal values may be shown once. Read-outs that look alike come from different tables or passages of the source.

Columns and labels:
SSTR1 = biological target: SSTR1; set-up: method as in earlier work; conditions: read-out: binding affinity for SSTR1; cited from earlier work
[1] = biological target: T1, human somatostatin type 2 receptor (SSTR2) (Homo sapiens, UniProt P30874); conditions: read-out: SSTR2 agonist activity cAMP, EC50; cited from earlier work
T1 sequence (P30874 whole entry): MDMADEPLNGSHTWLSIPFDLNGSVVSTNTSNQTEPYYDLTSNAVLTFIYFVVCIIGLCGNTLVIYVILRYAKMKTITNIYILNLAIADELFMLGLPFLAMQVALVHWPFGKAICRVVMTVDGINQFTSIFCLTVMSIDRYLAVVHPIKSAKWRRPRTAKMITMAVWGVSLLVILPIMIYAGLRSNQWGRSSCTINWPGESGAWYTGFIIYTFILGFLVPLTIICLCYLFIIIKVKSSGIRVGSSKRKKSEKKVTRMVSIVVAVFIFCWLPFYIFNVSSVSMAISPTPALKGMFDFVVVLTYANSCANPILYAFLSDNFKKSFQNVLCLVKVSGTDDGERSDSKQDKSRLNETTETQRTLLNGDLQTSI

[2] = Subcutaneous pharmacokinetics, plasma by HPLC-MS/MS; format: in vivo; conditions: mouse, 4 mg/kg sc, POMC KO mice, n = 4
Procedure: To study and compare the pharmacokinetic behavior of TBR-760, the DA analogue BIM-53097 and the SST analogue BIM-23023 solutions with appropriate concentrations were prepared as described earlier and mice were injected subcutaneously at time 0 with a dose of 4 mg/kg. Blood samples were collected at 15 and 30 minutes, and 1, 2, 4, 6, 8 and 24 hours after injection, and processed to obtain plasma. The determination of TBR-760, BIM-23023, or BIM-53097 was based on 100 μL plasma volume and was carried out by high-pressure liquid chromatography tandem mass spectrometry (HPLC-MS/MS) after protein precipitation with acetonitrile and subsequent solid-phase extraction. HPLC-MS/MS was performed on an AB SCIEX API 4000 LC-MS/MS with electrospray ionization operated in multiple-reaction monitoring mode for the analysis (Waters Corporation). Pharmacokinetic parameters were calculated by noncompartmental analyses using WinNonLin (version 5.2).

SSTR4 = biological target: SSTR4; set-up: method as in earlier work; conditions: read-out: binding affinity for SSTR4; cited from earlier work
[3] = system: NFPAs in heterozygous POMC KO mice; assay: Study 2: TBR-760 vs individual DA and SST agonists on pituitary tumor growth; format: in vivo, mouse
Text: (§1) Wild-type mice (3 male, 3 female) at age 6 months were scanned by MRI to determine average normal pituitary size. Heterozygous POMC KO mice were screened using MRI starting at average age 6.5 months (range, 5.5-9.5 months). These screening scans served to select animals for the study once reaching the baseline tumor volume of 10 mm^3 and to ensure reasonably homogenous groups. Most animals developed tumors within an average of 1.5 months after their first scan and at that point were randomly assigned to experimental groups. Two studies were conducted, the first comparing several doses of TBR-760 vs vehicle, and a second study comparing a fully effective dose of TBR-760 vs the molar equivalent and the 10× molar equivalent (based on the dose of TBR-760) of a pure SST agonist (BIM-23023), a pure DA agonist (BIM-53097), and the combination of the two. The concentration of the DA agonist was doubled to reflect the 2:1 ratio of DA:SST moieties present in TBR-760.
(§2) All groups were composed of 3 males and 3 females, with the exception of the vehicle- and TBR-760-treated groups (n = 8, 4 males/4 females) of the second study, which were maintained for survival analysis as described later. Once entered into the study, all mice received MRI scans for baseline, followed by scans at 2 weeks, 1 month, and 2 months after the baseline scan. Once tumor volume reached 10 mm^3 in the heterozygous POMC KO mice, the mice were treated by daily subcutaneous injection, with each injection given at the same approximate time of day. The mice were euthanized 8 weeks after start of treatment (ie, after the last scan), and pituitary tissue was collected, weighed, and flash-frozen, with the exception of the TBR-760 and vehicle-treated groups in the second study, which were maintained for survival analysis.
(§3) All studies were conducted on a Bruker 7T/210 mm Biospec system (Bruker) at the Duke Center for In Vivo Microscopy. The initial screening scans, conducted at age 6 months in wild-type mice, and average age 6.5 months (range, 5.5-9.5 months) in heterozygous POMC KO mice, were fast scans with scan times of 4 minutes (rapid acquisition with refocused echoes [RARE], repetition time [TR] = 1 second, echo time [TE] = 50 ms; 100 μm × 100 μm × 0.4 mm). Images were analyzed in ImageJ ([36]). Treatment monitoring MRI scans were carried out at 2 weeks, 1 month, and 2 months after start of treatment. For all monitoring scans, parameters were 40-minute scan time (RARE; TR = 5 seconds, TE = 50 ms; 100 μm × 100 μm × 0.3 mm). All scans included complete sectional scans of the pituitary, which were used to calculate tumor volume. MR images were preprocessed using bias field correction to account for the sensitivity profile of the receive coil, thus enhancing the tumor contrast. A trained analyst then manually segmented the tumor on each slice of the MRI. Volume of the tumor was then calculated by multiplying the area of the segmentation by the slice thickness for each slice of the image.
To compare the ability of TBR-760 to arrest aggressive pituitary tumor growth in the POMC KO mouse model vs its individual SST or DA components, either alone or in combination, heterozygous POMC KO mice were again randomly assigned to treatment groups when they presented with tumors approximately 10 mm^3 in size as determined by MRI. […]

[4] = biological target: T2, human dopamine type 2 receptor (D2R) (Homo sapiens, UniProt P14416); assay: D2R receptor binding affinity; conditions: internal Tiburio data
T2 sequence (P14416 whole entry): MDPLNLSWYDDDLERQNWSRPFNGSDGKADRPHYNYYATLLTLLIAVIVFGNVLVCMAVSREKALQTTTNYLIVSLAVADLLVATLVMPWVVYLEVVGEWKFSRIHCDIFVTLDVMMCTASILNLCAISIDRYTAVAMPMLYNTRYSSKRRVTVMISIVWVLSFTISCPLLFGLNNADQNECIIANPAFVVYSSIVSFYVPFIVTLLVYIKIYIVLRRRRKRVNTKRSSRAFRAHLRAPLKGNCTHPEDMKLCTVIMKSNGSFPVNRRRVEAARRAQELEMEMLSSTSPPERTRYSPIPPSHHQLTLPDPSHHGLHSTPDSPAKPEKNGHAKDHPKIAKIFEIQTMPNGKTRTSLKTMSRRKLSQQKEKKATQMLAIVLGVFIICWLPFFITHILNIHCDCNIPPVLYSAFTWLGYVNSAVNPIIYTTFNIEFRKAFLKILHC
Text: Table 1. Receptor binding affinity and agonist activity at human dopamine type 2 and somatostatin type 2 | column: D2R binding, Ki nM

[5] = biological target: T2, human dopamine type 2 receptor (D2R); assay: D2R agonist activity, cAMP; format: cell-based; conditions: internal Tiburio data
Procedure: Table 1. Receptor binding affinity and agonist activity at human dopamine type 2 and somatostatin type 2 | column: D2R agonist activity cAMP, EC50 nM

residual NFPAs = system: residual NFPAs; set-up: method as in PMID 30540568; conditions: after 24 months, cited from earlier work
[6] = biological target: T1, human somatostatin type 2 receptor (SSTR2); assay: SSTR2 agonist activity, cAMP; format: cell-based; conditions: internal Tiburio data
Procedure: Table 1. Receptor binding affinity and agonist activity at human dopamine type 2 and somatostatin type 2 | column: SSTR2 agonist activity cAMP, EC50 nM

[7] = system: NFPAs in heterozygous POMC KO mice; assay: Survival analysis of tumor-bearing mice; format: in vivo, mouse; conditions: TBR-760 1 mg/kg/day, at euthanasia; vehicle 45.76 ± 6.28
Text: In the second study, the survival of TBR-760–treated mice was examined and compared with vehicle-treated mice. After the initial 8-week treatment period was complete, vehicle-treated mice were paired with TBR-760–treated mice, and treatment continued as before. When a vehicle-treated mouse died, its TBR-760-treated mouse partner continued to receive treatment for an additional 8 weeks before being euthanized. On death or euthanasia, pituitaries were collected, weighed, and flash-frozen.
Statistical analysis was performed using PRISM8 (GraphPad 2018). An ANOVA was performed followed by post hoc analysis with Dunnett’s multiple comparisons test. Results are expressed as mean ± SEM. P less than .05 was considered statistically significant. Survival analysis was performed using PRISM8 using the Gehan-Breslow-Wilcoxon test to compare the survival curves.

[8] = system: NFPAs in heterozygous POMC KO mice; assay: Study 1: TBR-760 dose comparison on pituitary tumor growth (MRI volume, tumor weight); format: in vivo, mouse; conditions: mean ± SEM; for tumor volume after 8 weeks of treatment: vehicle 72.5 ± 5.9; for tumor weight after 8 weeks of treatment: vehicle 36 ± 7.4
Text: as §1, §2, §3
At that time, treatment was initiated with daily subcutaneous injections of either vehicle or 0.125, 1.25, or 12.5 mg/kg of TBR-760 for 8 weeks. […] The dramatic difference in tumor growth between vehicle- and TBR-760–treated mice was further confirmed by visual comparison and measurement of weights of pituitaries on death of the mice (Fig. 7B and 7C).

[9] = system: cultured human NFPA cells; set-up: method as in PMID 18509006; conditions: in vitro; cited from earlier work
[10] = biological target: T1, human somatostatin type 2 receptor (SSTR2); assay: SSTR2 receptor binding affinity; conditions: internal Tiburio data
Text: Table 1. Receptor binding affinity and agonist activity at human dopamine type 2 and somatostatin type 2 | column: SSTR2 binding, Ki nM

In the case of CC[C@@H]1NC(=O)[C@H](CCCCN)NC(=O)[C@@H](Cc2c[nH]c3ccccc23)NC(=O)[C@H](Cc2ccc(O)cc2)NC(=O)[C@@H](NC(=O)[C@H](N)Cc2ccccc2)CSSC[C@@H](C(=O)N[C@H](C(N)=O)[C@@H](C)O)NC1=O [BIM-23023, reference compound], the Ki (SSTR1) is given as over 1000 nM, the EC50 [1] is given as 0.14 nM and the AUC(0-inf) [2] is given as 2860 ng·h/mL. For the same compound, the Cmax [2] was 2300 ng/mL, the Tmax [2] was 0.25 h and the half-life [2] was 0.59 h. For the same compound, the Ki (SSTR4) was over 1000 nM, the “pituitary weight vs untreated, tumor-bearing controls” value ([3]; after 8 weeks of treatment) was “not significantly different” and the “effect on tumor growth vs vehicle” value ([3]; either dose (1 or 10 mg/kg) daily sc, 8 weeks) was “failed to show significant effects on tumor growth”.

In the case of C=CCN1C[C@H](C(=O)N(CCCN(C)C)C(=O)NCC)C[C@@H]2c3cccc4[nH]cc(c34)C[C@H]21 [Cabergoline], the Ki [4] is listed as 0.8 nM, the EC50 [5] is listed as 0.026 nM and the “patients with significant tumor shrinkage” value (residual NFPAs; nonintervention group 10.5%) is listed as 28.8%. The “patients with tumor growth” value (residual NFPAs; nonintervention group 15.8%) was 5.1% and the “patients with stabilization of tumor” value (residual NFPAs; nonintervention group 73.7%) was 66.1%.

For CCCN1C[C@H](CSCC(=O)NCCCC[C@@H](NC(=O)CSC[C@@H]2C[C@@H]3c4cccc5[nH]cc(c45)C[C@H]3N(CCC)C2)C(=O)N[C@H]2CSSC[C@@H](C(=O)N[C@H](C(N)=O)[C@@H](C)O)NC(=O)[C@H](CC)NC(=O)[C@H](CCCCN)NC(=O)[C@@H](Cc3c[nH]c4ccccc34)NC(=O)[C@H](Cc3ccc(O)cc3)NC2=O)C[C@@H]2c3cccc4[nH]cc(c34)C[C@H]21 [TBR-760], the EC50 [6] is given as 1.22 nM, the Ki (SSTR1) is given as 843 nM and the Ki [4] is given as 12.1 nM. It also gave a final tumor weight [7] of 5.42 ± 0.52 mg, an EC50 [5] of 0.064 nM and an AUC(0-inf) [2] of 1880 ng·h/mL. It also gave a Cmax [2] of 354 ng/mL, a Tmax [2] of 2 h and a half-life [2] of 2.56 h. The Ki (SSTR4) was over 1000 nM, the “tumor volume after 8 weeks of treatment” value ([8]; 0.125 mg/kg daily sc) was 16.5 ± 2.6 mm^3 and the “tumor weight after 8 weeks of treatment” value ([8]; 0.125 mg/kg daily sc) was 5.4 ± 0.67 mg. For the same compound, the “tumor volume after 8 weeks of treatment” value ([8]; 1.25 mg/kg daily sc) was 10.9 ± 1.1 mm^3, the “tumor weight after 8 weeks of treatment” value ([8]; 1.25 mg/kg daily sc) was 5.0 ± 0.61 mg and the “tumor volume after 8 weeks of treatment” value ([8]; 12.5 mg/kg daily sc) was 12.3 ± 1.0 mm^3. The “tumor weight after 8 weeks of treatment” value ([8]; 12.5 mg/kg daily sc) was 4.8 ± 0.61 mg, the “tumor volume after 8 weeks of treatment” value ([3]; 1 mg/kg/day sc, 8 weeks, mean ± SEM, vehicle 54.6 ± 10.6) was 8.5 ± 1.3 mm^3 and the “proportion of treated mice with tumor shrinkage” value ([3]; TBR-760 1 mg/kg/day sc) was 20%. The “mean tumor volume reduction in mice whose tumors shrank” value ([3]; TBR-760 1 mg/kg/day sc, 1 mg/kg/day) was 44.7% and 45%, the “proportion of NFPAs examined with significant inhibition of cell proliferation” value [9] was “approximately 60%” and the Ki [10] was 0.01 nM.
